Laboratory results reported in US20250163016A1, “PYRIDINE DERIVATIVE, PREPARATION METHOD THEREFOR AND USE THEREOF” (CHENGDU EASTON BIOPHARMACEUTICALS CO., LTD., priority 2022, published 2025).

What was measured:
[1] = target: T1, LSD1 (Homo sapiens, UniProt O60341); assay: LSD1 activity test (HTRF); format: biochemical; conditions: H3(1-21)K4 me1-biotin substrate, read-out: IC50, inhibitory activity on LSD1
T1 construct: purchased Active Motif 31432
Experimental: In this test, a homogeneous time resolved fluorescence (HTRF) technology was utilized, and the inhibitory activity of compounds on LSD1 was detected by adopting a two-step method. The first step was to incubate LSD1, compounds of different concentrations, and a biotin-labeled methylated polypeptide substrate (H3(1-21)K4 me1-biotin) at the room temperature for fixed time.
A corresponding solution with a 1000-fold final concentration was formed by dilution in a 384-well Source plate, and then Echo550 was used for transferring 10 nL to a 384-well reaction plate for being tested.
An inhibition percentage was calculated using a maximum value, a minimum value, and a signal value (maximum value: fluorescence intensity of 5 μL of 2× enzyme solution+5 μL of 2× substrate mixed solution+10 nL of 100% DMSO+10 μL of detection solution; minimum value: fluorescence intensity of 5 μL of 1× reaction solution+5 μL of 2× substrate mixed solution+10 nL of 100% DMSO+10 μL of detection solution; and signal value: fluorescence intensity of 5 μL of 2× enzyme solution+5 μL of 2× substrate mixed solution+10 nL of diluted compound to be tested+10 μL of detection solution), and a calculation formula was as follows: […]
(§1) Using a logarithm of the concentration as an X axis and the percentage inhibition rate as a Y axis, a dose-response curve was fitted using a formula log(inhibitor) vs. response-Variable slope (Four parameters) of analysis software Graphpad Prism 5 to obtain the IC50 value of each compound on the enzyme activity.

[2] = tested on: Kasumi-1 cells; assay: Kasumi-1 cell proliferation inhibition test (Celltiter GLO); format: cell-based; conditions: Homo sapiens, 168 h, Kasumi-1, 7 days culture
Experimental: (§2) Research had confirmed that LSD1 played a crucial role in the occurrence process of various types of cancers, including small cell lung cancer (SCLC) and acute myeloid leukemia (AML). Therefore, a human acute myeloid leukemia (Kasumi-1) cell line was used to determine the ATP content in cells at different drug concentrations using a Celltiter GLO assay kit, the cell activity was reflected by luminescence intensity, and IC50 values of different compounds on Kasumi-1 cells were calculated using inhibition rates. The inhibitory effects of the compounds in the present application on the proliferation of Kasumi-1 cells were studied to evaluate the anti-tumor efficacy of the tested compounds at the cellular level.
(§3) • Day 1 Cells were seeded into the 384-well cell culture plate and placed in a 37° C. 5% CO2 cell incubator to be cultured overnight. • Day 0 The compound to be tested was prepared into a 10 mM mother liquid using DMSO, starting from 1 M, diluted by 3 folds, with 10 concentration points and double duplicate wells. A diluted compound was added into the 384-well cell culture plate and placed in a 37° C. 5% CO2 cell incubator to be cultured for 7 days. The concentration of the DMSO in a cell culture system was 0.1 vol %. • Day 7 Celltiter GLO was added into the 384-well cell culture plate according to a volume ratio of culture system:Celltiter GLO=1:1, light-shielded oscillation was carried out on a plate oscillator for 3 min, then the cell culture plate was placed at the room temperature for 30 min with light shielded, and the plate was read using a multifunctional microplate reader chemical light emitting module.
An inhibition rate was calculated by utilizing luminescence intensity of the above DMSO group (with DMSO added), test group (with the tested compound or a positive control solution added) and blank group (not treating cells), and a calculation formula was as follows: […]
as §1, with “Prism 8” for “Prism 5”, “on Kasumi-1 proliferation inhibition” for “on the enzyme”

[3] = Pharmacokinetics of oral administration of rats; format: in vivo; conditions: male, rat, SD rats, p.o. 5.0 mg/kg, plasma
Experimental: With SD rats as tested animals, blood drug concentrations in plasma at different moments after oral administration of the compounds of the present application by the rats in a clarification kit mode were determined using an LC-MS/MS method. Pharmacokinetic parameters of the compounds of the present application in the rats were obtained, and pharmacokinetic characteristics of the compounds were studied.
• SD rats, male, weight 180-220 g, 3 rats per group. The animals were fed in an animal house after being purchased, an adaptation period was at least 3 days, and they were used for tests after passing quarantine.
According to Table 4, each group of rats was given the corresponding tested drugs or positive drugs by gavage, before administration, and 15 min, 30 min, 1 h, 2 h, 4 h, 6 h, 8 h, and 24 h after administration, a fixed volume of blood was collected through eye sockets and placed in an EDTA-K2 anticoagulant tube, centrifuging was carried out at 8000 rpm for 1 min to separate plasma into a centrifuge tube, and the plasma was frozen in a −20° C. refrigerator.
The plasma at each time point stored at −20° C. was taken out, then acetonitrile was added, after whirling at 1500 revolutions for 2 min, centrifuging was carried out for 15 min (3500 r/min), and a fixed volume of solution supernatant was taken for LC-MS/MS analysis.
Non-compartment model fitting was carried out on pharmacokinetic behaviors of the tested compounds, and DAS3.31 software was adopted to calculate main pharmacokinetic parameters (T1/2, Tmax, Cmax, AUClast, etc.).

[4] = tested on: NCI-H1417 cells; assay: NCI-H1417 cell proliferation inhibition test (Celltiter GLO); format: cell-based; conditions: Homo sapiens, 168 h, NCI-H1417, 7 days culture
Experimental: as §2, with “small cell lung cancer (NCI-H1417)” for “acute myeloid leukemia (Kasumi-1)”, “kit, and” for “kit,”, “intensity.” for “intensity, and”, “the NCI-H1417” for “Kasumi-1”
as §3, with “μM,” for “M,”, “0.1%.” for “0.1 vol %.”
An inhibition percentage was calculated by utilizing luminescence intensity of the above DMSO group (with DMSO added), test group (with the tested compound and a positive control solution added) and blank group (not treating cells), a calculation formula being
as §1, with “Prism 8” for “Prism 5”, “on NCI-H1417 proliferation inhibition” for “on the enzyme”

IC50 [1] [nM] | AUC(0-t) [3] [ng·h/mL] | Cmax [3] [ng/mL] | Tmax [3] [h] | half-life [3] [min] | IC50 [4] [nM] | Compound | IC50 [2] [nM]
0.47 | 712 ± 89.3 | 55 ± 7.72 | 6 | 319 ± 14.4 | 16.7 | Cn1ncc2cc(-c3c(C#N)cc(N4CCC(N)CC4)nc3-c3ccc(C#N)c(F)c3)ccc21 [Compound 4, 6-(4-aminopiperid-1-yl)-2-(4-cyano-3-fluorophenyl)-3-(1-methyl-1H-indazol-5-yl)isonicotinonitrile] | 3.07
1.5 | 591 ± 292 | 77.2 ± 32.1 | 4 | 176 ± 6.6 | 33.3 | CN1C(=O)Cc2cc(-c3c(C#N)cc(N4CCC(N)CC4)nc3-c3ccc(C#N)c(F)c3)ccc21 [Compound 18, 6-(4-aminopiperid-1-yl)-2-(4-cyano-3-fluorophenyl)-3-(1-methyl-2-oxoindol-5-yl)isonicotinonitrile] | 8.79
0.79 | 721 ± 125 | 81.4 ± 17 | 4.67 ± 1.15 | 170 ± 35.4 | 6.51 | CC(C)(O)Cn1ncc2cc(-c3c(C#N)cc(N4CCCNCC4)nc3-c3ccc(C#N)c(F)c3)c(F)cc21 [Compound 21, 2-(4-cyano-3-fluorophenyl)-6-(1,4-diazaniline-1-yl)-3-(6-fluoro-1-(2-hydroxyl-2-methylpropyl)-1H-indazol-5-yl)isonicotinonitrile] | 1.03
